According to ChEMBL document CHEMBL5465560, “Selectivity Literature for EUbOPEN Chemogenomic Library” (2024):

Key:
[1] = biological target: T1, Mitogen-activated protein kinase kinase kinase 3 (Homo sapiens) (UniProt Q99759); conditions: at 10 µM
T1 sequence (whole entry): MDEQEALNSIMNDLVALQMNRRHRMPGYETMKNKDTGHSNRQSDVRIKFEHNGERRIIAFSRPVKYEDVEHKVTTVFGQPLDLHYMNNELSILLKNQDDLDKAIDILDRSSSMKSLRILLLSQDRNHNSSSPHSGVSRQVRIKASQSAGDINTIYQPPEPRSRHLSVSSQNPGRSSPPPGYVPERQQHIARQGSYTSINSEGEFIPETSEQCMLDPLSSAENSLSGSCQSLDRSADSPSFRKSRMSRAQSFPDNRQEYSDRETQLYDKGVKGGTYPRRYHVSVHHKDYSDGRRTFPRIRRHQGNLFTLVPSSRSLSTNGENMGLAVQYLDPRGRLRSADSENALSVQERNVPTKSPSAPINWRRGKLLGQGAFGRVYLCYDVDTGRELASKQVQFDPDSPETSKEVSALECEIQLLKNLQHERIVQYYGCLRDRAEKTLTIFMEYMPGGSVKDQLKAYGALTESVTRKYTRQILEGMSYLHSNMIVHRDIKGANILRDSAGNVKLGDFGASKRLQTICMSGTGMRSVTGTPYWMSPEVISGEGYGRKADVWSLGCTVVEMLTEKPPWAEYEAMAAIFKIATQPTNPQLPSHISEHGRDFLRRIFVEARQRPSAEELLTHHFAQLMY

[2] = biological target: Proto-oncogene tyrosine-protein kinase ROS (Homo sapiens) (UniProt P08922); test: Selectivity interaction (Kinase screening (Nanosyn)) EUB0000604a ROS1
[3] = biological target: Ribosomal protein S6 kinase alpha-3 (Homo sapiens, UniProt P51812); test: Selectivity interaction (KinomeScan (DiscoverX)) EUB0001049a RPS6KA3; conditions: at 1 µM
[4] = biological target: Tyrosine-protein kinase ABL1 (Homo sapiens, UniProt P00519); test: Selectivity interaction (ActivX KiNativ screen (kinase selectivity in THP-1 cell lysates)) EUB0000639a ABL1; format: subcellular; conditions: lysate, at 0.01 µM
[5] = biological target: T2, Beta-adrenergic receptor kinase 1 (Homo sapiens) (UniProt P25098); test: Selectivity interaction (KinomeScan (DiscoverX)) EUB0000695a ADRBK1; conditions: at 100 nM
T2 sequence (whole entry): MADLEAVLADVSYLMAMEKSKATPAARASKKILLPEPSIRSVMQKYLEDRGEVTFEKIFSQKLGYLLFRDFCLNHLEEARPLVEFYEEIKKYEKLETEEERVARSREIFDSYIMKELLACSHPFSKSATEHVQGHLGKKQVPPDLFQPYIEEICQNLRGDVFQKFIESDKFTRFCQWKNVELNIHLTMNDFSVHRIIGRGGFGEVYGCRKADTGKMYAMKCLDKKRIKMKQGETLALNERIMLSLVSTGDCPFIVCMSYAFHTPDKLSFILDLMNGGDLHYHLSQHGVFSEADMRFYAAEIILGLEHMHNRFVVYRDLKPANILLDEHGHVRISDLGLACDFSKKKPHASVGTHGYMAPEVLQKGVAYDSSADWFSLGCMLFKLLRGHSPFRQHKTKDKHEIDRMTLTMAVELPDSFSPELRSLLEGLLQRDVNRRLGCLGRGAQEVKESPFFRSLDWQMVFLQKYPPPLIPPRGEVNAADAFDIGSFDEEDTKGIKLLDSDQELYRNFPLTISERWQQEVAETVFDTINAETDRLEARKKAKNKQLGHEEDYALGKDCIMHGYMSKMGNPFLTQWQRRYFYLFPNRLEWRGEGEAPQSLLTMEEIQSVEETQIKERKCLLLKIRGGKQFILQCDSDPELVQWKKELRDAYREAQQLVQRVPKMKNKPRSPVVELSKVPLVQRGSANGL

Focal adhesion kinase 1 = Focal adhesion kinase 1 (Homo sapiens, UniProt Q05397); conditions: at 10 µM
[6] = biological target: SRSF protein kinase 2 (Homo sapiens) (UniProt P78362); conditions: at 10 µM
[7] = biological target: T3, Testis-specific serine/threonine-protein kinase 1 (Homo sapiens) (UniProt Q9BXA7); test: Selectivity interaction (KinomeScan (DiscoverX)) EUB0000092b TSSK1A; conditions: at 10 µM
T3 sequence (whole entry): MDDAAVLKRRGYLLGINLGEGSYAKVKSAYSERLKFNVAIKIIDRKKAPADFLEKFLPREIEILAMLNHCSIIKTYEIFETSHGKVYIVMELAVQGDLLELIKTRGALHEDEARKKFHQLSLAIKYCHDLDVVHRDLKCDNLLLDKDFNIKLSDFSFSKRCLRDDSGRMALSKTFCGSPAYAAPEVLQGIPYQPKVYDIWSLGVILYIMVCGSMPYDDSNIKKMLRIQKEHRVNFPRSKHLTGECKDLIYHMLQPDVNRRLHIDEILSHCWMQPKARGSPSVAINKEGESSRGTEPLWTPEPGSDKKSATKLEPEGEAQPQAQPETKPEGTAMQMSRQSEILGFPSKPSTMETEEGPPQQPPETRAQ

[8] = biological target: Mitogen-activated protein kinase kinase kinase kinase 4 (Homo sapiens, UniProt O95819); test: Selectivity interaction (KinomeScan (DiscoverX)) EUB0001619a MAP4K4; conditions: at 1 µM
[9] = biological target: Serine/threonine-protein kinase MRCK gamma (Homo sapiens) (UniProt Q6DT37); test: Selectivity interaction (KinomeScan (DiscoverX)) EUB0000618a CDC42BPG; conditions: at 10 µM
[10] = biological target: T4, Protein kinase C iota type (Homo sapiens) (UniProt P41743); test: Selectivity interaction (KinomeScan (DiscoverX)) EUB0000666a PRKCI; conditions: at 10 µM
T4 sequence (whole entry): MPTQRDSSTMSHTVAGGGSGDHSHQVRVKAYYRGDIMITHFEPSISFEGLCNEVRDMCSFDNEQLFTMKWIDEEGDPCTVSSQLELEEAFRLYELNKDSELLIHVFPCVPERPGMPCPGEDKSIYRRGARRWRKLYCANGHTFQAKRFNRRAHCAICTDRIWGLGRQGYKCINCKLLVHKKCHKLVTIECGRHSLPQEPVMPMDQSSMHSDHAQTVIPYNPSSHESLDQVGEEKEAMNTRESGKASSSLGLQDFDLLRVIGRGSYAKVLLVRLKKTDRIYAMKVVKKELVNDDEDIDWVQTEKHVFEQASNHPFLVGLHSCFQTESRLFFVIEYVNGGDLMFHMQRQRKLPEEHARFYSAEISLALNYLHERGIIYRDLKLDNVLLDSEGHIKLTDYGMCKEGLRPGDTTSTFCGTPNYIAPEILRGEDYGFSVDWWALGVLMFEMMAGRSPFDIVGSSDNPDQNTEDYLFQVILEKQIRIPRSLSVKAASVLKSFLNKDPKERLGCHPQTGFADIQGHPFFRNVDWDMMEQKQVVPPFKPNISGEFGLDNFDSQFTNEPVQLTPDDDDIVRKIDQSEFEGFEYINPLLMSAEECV

[11] = biological target: Phosphatidylinositol 4-phosphate 5-kinase type-1 alpha (Homo sapiens) (UniProt Q99755); test: Selectivity interaction (KinomeScan (DiscoverX)) EUB0000666a PIP5K1A; conditions: at 10 µM

Chain of Proto-oncogene tyrosine-protein kinase ROS (Homo sapiens) (P08922 whole entry): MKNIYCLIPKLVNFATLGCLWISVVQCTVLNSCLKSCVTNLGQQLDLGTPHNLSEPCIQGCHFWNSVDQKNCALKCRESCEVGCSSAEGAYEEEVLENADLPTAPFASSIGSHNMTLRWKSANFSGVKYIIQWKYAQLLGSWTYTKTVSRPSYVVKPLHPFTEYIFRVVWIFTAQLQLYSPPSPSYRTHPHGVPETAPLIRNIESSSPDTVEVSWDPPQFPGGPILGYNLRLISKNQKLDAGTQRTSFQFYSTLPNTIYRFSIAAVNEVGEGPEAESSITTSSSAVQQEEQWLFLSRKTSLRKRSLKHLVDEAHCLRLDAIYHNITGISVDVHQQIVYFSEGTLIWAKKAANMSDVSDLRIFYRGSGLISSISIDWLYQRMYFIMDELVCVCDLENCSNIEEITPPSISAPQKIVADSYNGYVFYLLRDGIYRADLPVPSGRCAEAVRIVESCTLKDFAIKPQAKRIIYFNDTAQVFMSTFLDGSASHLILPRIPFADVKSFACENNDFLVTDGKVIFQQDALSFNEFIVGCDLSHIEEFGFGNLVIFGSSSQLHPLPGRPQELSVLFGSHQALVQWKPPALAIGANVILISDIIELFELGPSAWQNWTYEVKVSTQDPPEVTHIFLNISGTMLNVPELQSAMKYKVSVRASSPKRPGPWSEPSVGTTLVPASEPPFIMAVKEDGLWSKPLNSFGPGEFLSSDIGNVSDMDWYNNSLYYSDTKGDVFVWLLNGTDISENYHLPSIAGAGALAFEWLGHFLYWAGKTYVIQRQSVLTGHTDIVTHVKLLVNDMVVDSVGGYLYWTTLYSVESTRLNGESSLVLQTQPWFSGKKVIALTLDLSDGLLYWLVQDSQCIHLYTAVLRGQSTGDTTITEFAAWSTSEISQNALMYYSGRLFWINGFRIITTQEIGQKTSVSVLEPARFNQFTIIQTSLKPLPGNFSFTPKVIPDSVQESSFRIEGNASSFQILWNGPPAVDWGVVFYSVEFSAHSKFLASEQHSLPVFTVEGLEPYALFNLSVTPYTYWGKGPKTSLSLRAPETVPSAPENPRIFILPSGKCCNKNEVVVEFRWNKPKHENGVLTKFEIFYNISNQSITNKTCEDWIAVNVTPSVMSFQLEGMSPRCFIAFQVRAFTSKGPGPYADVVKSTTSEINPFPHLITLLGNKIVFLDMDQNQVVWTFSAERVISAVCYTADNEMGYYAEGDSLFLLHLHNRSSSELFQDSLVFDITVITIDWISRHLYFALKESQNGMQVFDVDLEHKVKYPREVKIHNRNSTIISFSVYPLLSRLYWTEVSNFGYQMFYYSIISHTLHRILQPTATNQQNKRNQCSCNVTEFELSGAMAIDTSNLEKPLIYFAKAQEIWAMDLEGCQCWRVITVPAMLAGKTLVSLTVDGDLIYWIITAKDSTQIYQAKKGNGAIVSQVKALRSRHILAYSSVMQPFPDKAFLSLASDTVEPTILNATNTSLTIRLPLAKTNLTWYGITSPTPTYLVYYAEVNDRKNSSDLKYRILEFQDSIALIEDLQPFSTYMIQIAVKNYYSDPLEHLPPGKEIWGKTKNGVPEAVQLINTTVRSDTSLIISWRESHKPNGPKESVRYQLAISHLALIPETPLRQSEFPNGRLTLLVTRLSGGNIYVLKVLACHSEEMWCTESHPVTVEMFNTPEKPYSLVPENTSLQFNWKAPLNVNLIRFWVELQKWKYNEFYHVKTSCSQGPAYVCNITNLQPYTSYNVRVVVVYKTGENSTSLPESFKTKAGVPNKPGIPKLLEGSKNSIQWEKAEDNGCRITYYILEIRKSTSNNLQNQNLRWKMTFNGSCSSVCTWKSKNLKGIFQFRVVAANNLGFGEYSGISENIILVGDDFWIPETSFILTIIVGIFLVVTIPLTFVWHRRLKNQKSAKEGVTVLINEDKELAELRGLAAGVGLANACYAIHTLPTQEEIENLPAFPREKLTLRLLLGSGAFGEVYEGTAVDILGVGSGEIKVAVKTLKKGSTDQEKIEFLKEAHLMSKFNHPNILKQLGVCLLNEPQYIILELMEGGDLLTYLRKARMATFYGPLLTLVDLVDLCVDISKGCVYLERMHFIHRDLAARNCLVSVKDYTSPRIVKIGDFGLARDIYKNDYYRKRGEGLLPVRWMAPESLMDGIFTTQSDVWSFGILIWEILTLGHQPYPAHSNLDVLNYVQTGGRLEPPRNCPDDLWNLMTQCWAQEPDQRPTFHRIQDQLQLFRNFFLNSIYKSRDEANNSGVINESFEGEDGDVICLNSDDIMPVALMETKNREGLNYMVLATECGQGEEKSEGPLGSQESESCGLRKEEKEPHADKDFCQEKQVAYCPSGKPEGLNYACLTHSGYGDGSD
Chain of Mitogen-activated protein kinase kinase kinase kinase 4 (O95819 2-1239 limits assumed): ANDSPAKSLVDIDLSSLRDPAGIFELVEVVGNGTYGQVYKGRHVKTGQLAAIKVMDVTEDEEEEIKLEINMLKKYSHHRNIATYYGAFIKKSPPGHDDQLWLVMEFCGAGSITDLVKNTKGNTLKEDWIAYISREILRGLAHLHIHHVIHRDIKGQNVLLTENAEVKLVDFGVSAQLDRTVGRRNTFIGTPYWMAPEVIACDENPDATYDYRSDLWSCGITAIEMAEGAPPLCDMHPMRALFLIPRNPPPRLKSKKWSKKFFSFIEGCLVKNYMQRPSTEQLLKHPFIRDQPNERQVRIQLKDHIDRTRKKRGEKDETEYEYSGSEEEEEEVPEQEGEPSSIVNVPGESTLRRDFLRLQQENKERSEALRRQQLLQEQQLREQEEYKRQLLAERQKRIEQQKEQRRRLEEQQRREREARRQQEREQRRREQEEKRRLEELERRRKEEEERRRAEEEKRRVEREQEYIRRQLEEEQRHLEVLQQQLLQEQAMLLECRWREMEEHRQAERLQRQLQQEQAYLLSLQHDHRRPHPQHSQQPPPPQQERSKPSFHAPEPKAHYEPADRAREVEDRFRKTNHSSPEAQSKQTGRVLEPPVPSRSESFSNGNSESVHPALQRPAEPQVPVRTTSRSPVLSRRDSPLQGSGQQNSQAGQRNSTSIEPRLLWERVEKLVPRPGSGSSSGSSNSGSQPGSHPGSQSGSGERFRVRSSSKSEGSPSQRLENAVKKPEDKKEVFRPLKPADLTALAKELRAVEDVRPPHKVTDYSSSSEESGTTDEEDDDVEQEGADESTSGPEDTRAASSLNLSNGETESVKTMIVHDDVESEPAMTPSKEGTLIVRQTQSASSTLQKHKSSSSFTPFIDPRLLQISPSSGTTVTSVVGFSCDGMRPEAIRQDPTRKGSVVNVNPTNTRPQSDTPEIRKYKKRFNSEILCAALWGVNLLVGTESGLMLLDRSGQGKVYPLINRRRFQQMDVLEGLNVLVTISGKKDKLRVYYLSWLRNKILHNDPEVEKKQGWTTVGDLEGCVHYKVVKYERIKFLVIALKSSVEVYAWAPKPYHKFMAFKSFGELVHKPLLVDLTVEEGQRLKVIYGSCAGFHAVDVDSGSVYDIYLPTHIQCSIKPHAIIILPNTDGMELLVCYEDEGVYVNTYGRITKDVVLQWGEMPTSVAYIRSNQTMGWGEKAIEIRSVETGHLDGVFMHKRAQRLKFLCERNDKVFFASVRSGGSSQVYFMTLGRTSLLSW
Chain of Serine/threonine-protein kinase MRCK gamma (Homo sapiens) (Q6DT37 whole entry): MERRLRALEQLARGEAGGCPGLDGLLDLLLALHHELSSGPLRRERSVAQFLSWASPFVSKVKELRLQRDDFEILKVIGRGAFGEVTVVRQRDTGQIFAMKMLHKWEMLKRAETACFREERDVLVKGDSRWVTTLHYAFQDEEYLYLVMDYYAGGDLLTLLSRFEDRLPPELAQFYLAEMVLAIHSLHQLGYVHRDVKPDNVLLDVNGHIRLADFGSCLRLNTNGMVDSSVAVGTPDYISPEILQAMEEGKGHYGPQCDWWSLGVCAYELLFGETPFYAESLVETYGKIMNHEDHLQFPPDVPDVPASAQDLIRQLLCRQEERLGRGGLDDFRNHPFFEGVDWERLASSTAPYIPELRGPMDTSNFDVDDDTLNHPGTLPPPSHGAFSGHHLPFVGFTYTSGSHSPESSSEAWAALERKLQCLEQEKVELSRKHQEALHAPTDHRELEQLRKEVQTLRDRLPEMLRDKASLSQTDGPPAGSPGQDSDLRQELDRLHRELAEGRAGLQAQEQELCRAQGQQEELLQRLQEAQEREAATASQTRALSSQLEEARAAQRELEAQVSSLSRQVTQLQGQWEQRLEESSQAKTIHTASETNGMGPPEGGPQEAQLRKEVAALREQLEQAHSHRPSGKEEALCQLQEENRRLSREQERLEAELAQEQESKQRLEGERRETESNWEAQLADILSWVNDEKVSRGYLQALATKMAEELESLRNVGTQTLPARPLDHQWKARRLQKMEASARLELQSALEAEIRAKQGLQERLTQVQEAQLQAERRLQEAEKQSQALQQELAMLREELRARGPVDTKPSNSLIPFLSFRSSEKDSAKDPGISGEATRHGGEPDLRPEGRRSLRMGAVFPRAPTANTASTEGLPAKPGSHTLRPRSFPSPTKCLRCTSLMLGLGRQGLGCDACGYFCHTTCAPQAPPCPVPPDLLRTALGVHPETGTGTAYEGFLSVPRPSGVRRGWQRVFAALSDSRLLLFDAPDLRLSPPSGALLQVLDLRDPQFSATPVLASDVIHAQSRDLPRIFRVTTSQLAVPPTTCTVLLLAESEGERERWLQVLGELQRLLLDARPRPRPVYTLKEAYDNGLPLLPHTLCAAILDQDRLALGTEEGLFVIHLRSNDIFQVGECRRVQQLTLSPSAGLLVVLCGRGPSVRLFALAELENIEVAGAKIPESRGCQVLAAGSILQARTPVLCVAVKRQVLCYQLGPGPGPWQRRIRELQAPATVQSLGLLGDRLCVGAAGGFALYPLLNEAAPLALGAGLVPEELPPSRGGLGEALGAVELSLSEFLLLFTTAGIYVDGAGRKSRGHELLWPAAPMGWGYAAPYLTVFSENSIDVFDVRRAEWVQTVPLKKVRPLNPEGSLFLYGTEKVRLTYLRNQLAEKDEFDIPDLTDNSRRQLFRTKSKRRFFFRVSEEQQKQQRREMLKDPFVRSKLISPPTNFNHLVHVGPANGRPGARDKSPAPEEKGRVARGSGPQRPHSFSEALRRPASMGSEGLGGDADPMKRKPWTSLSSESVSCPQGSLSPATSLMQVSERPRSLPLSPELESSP

Cc1cc([C@@H](C)Nc2ccccc2C(=O)O)c2nc(N3CCOCC3)cc(=O)n2c1 [AZD-6482]
% of control [1]: 87%

Cc1cnc(Nc2ccc(F)cc2Cl)nc1-c1c[nH]c(C(=O)N[C@H](CO)c2cccc(Cl)c2)c1
% of inhibition [2]: 3%

COc1cc(Nc2nc(C)cc(-c3cnn4nc(OC)ccc34)n2)cc(C(F)(F)F)c1
% of control [3]: 77%

CC[C@@H]1[C@H](F)C(=O)N[C@@H]1COc1nccc2cc(C(N)=O)c(OC)cc12 [ZIMLOVISERTIB]
% of inhibition [4]: 52%

Cc1cc(F)c(C(=O)Nc2cccc(-c3nncn3C(C)C)n2)cc1-n1cnc(C2CC2)c1
% of control [5]: 70%

CCN(CC)CCCCNc1ncc2cc(-c3cc(OC)cc(OC)c3)c(NC(=O)NC(C)(C)C)nc2n1
% of control (Focal adhesion kinase 1): 100%
% of control [6]: 100%

CCC(=O)N1CCN(c2ccc(-n3c(=O)ccc4cnc5ccc(-c6cnc7ccccc7c6)cc5c43)cc2C(F)(F)F)CC1
% of control [7]: 100%

N#Cc1cccc(-c2c[nH]c3ncnc(N4CCOCC4)c23)c1
% of control [8]: 71%

O[C@H]1CC[C@H](Nc2ncc3nc(Nc4c(F)cc(F)cc4F)n([C@H]4CCOC4)c3n2)CC1
% of control [9]: 81%

O=C(NOC[C@H](O)CO)c1ccc(F)c(F)c1Nc1ccc(I)cc1F
% of control [10]: 70%
% of control [11]: 91%
